Experimental data published in ChEMBL document CHEMBL5518206, “Hit-to-Lead Identification and Validation of a Triaromatic Pleuromutilin Antibiotic Candidate” (J Med Chem, 2024).
In brackets after ≈: the same amount, converted by molar mass. Activity calls are given as the source filed them. The calls are words filed in the database; no cut-off is given here.

How the values were obtained:
Staphylococcus aureus [1] = test: Induction of resistant development in lefamulin 5 passages resistance developed Staphylococcus aureus USA300 FPR3757 assessed as fold increase in MIC at sub-MIC concentration measured after 13 passages with conjugate by serial passage assay; type: functional
Staphylococcus aureus [2] = test: Induction of resistant development in -(6-(6-(Piperazin-1-y1)-9H-purin-9-y)methyl)pyridin-3-y1)-1H-1,2,3-triazol-1-yl)-22-deoxypleuromutilin-16 passages resistance developed Staphylococcus aureus USA300 FPR3757 assessed as fold increase in MIC at sub-MIC concentration measured after 18 passages with conjugate by serial passage assay; type: functional
Staphylococcus aureus [3] = test: Induction of resistant development in linezolid 5 passages resistance developed Staphylococcus aureus USA300 FPR3757 assessed as fold increase in MIC at sub-MIC concentration measured after 9 passages with conjugate by serial passage assay; type: functional
Staphylococcus aureus [4] = test: Induction of resistant development in linezolid 5 passages resistance developed Staphylococcus aureus USA300 FPR3757 assessed as fold increase in MIC at sub-MIC concentration measured after 25 passages with conjugate by serial passage assay; type: functional
Staphylococcus aureus [5] = test: Induction of resistant development in -(6-(6-(Piperazin-1-y1)-9H-purin-9-y)methyl)pyridin-3-y1)-1H-1,2,3-triazol-1-yl)-22-deoxypleuromutilin-16 passages resistance developed Staphylococcus aureus USA300 FPR3757 assessed as fold increase in MIC at sub-MIC concentration measured after 22 passages with conjugate by serial passage assay; type: functional
Staphylococcus aureus [6] = test: Induction of resistant development in -(6-(6-(Piperazin-1-y1)-9H-purin-9-y)methyl)pyridin-3-y1)-1H-1,2,3-triazol-1-yl)-22-deoxypleuromutilin-16 passages resistance developed Staphylococcus aureus USA300 FPR3757 assessed as fold increase in MIC at sub-MIC concentration measured after 5 passages with conjugate by serial passage assay; type: functional
Staphylococcus aureus [7] = test: Induction of resistant development in -(6-(6-(Piperazin-1-y1)-9H-purin-9-y)methyl)pyridin-3-y1)-1H-1,2,3-triazol-1-yl)-22-deoxypleuromutilin-16 passages resistance developed Staphylococcus aureus USA300 FPR3757 assessed as fold increase in MIC at sub-MIC concentration measured after 9 passages with conjugate by serial passage assay; type: functional
Staphylococcus aureus [8] = test: Induction of resistant development in lefamulin 5 passages resistance developed Staphylococcus aureus USA300 FPR3757 assessed as fold increase in MIC at sub-MIC concentration measured after 18 passages with conjugate by serial passage assay; type: functional
Staphylococcus aureus [9] = test: Antibacterial activity against multi drug-resistant Staphylococcus aureus USA300 FPR3757 assessed as reduction in bacterial growth at 1 times of MIC concentration measured after 24 hrs by time-kill assay; type: functional, organism-based
Staphylococcus aureus [10] = test: Induction of resistant development in linezolid 5 passages resistance developed Staphylococcus aureus USA300 FPR3757 assessed as fold increase in MIC at sub-MIC concentration measured after 13 passages with conjugate by serial passage assay; type: functional
Staphylococcus aureus [11] = test: Induction of resistant development in lefamulin 5 passages resistance developed Staphylococcus aureus USA300 FPR3757 assessed as fold increase in MIC at sub-MIC concentration measured after 9 passages with conjugate by serial passage assay; type: functional
Staphylococcus aureus [12] = test: Induction of resistant development in linezolid 5 passages resistance developed Staphylococcus aureus USA300 FPR3757 assessed as fold increase in MIC at sub-MIC concentration measured after 28 passages with conjugate by serial passage assay; type: functional
Staphylococcus aureus [13] = test: Induction of resistant development in linezolid 5 passages resistance developed Staphylococcus aureus USA300 FPR3757 assessed as fold increase in MIC at sub-MIC concentration measured after 5 passages with conjugate by serial passage assay; type: functional
Staphylococcus aureus [14] = test: Induction of resistant development in linezolid 5 passages resistance developed Staphylococcus aureus USA300 FPR3757 assessed as fold increase in MIC at sub-MIC concentration measured after 18 passages with conjugate by serial passage assay; type: functional
Staphylococcus aureus [15] = test: Induction of resistant development in lefamulin 5 passages resistance developed Staphylococcus aureus USA300 FPR3757 assessed as fold increase in MIC at sub-MIC concentration measured after 28 passages with conjugate by serial passage assay; type: functional
Staphylococcus aureus [16] = test: Induction of resistant development in -(6-(6-(Piperazin-1-y1)-9H-purin-9-y)methyl)pyridin-3-y1)-1H-1,2,3-triazol-1-yl)-22-deoxypleuromutilin-16 passages resistance developed Staphylococcus aureus USA300 FPR3757 assessed as fold increase in MIC at sub-MIC concentration measured after 13 passages with conjugate by serial passage assay; type: functional
Staphylococcus aureus [17] = test: Induction of resistant development in -(6-(6-(Piperazin-1-y1)-9H-purin-9-y)methyl)pyridin-3-y1)-1H-1,2,3-triazol-1-yl)-22-deoxypleuromutilin-16 passages resistance developed Staphylococcus aureus USA300 FPR3757 assessed as fold increase in MIC at sub-MIC concentration measured after 25 passages with conjugate by serial passage assay; type: functional
Staphylococcus aureus [18] = test: Induction of resistant development in linezolid 5 passages resistance developed Staphylococcus aureus USA300 FPR3757 assessed as fold increase in MIC at sub-MIC concentration measured after 22 passages with conjugate by serial passage assay; type: functional
Staphylococcus aureus [19] = test: Induction of resistant development in lefamulin 5 passages resistance developed Staphylococcus aureus USA300 FPR3757 assessed as fold increase in MIC at sub-MIC concentration measured after 25 passages with conjugate by serial passage assay; type: functional
Staphylococcus aureus [20] = test: Induction of resistant development in lefamulin 5 passages resistance developed Staphylococcus aureus USA300 FPR3757 assessed as fold increase in MIC at sub-MIC concentration measured after 5 passages with conjugate by serial passage assay; type: functional
Staphylococcus aureus [21] = test: Induction of resistant development in lefamulin 5 passages resistance developed Staphylococcus aureus USA300 FPR3757 assessed as fold increase in MIC at sub-MIC concentration measured after 22 passages with conjugate by serial passage assay; type: functional
Staphylococcus aureus [22] = test: Induction of resistant development in -(6-(6-(Piperazin-1-y1)-9H-purin-9-y)methyl)pyridin-3-y1)-1H-1,2,3-triazol-1-yl)-22-deoxypleuromutilin-16 passages resistance developed Staphylococcus aureus USA300 FPR3757 assessed as fold increase in MIC at sub-MIC concentration measured after 28 passages with conjugate by serial passage assay; type: functional
hERG (KCNH2) = hERG (KCNH2) (Homo sapiens, UniProt Q12809); test: Inhibition of hERG expressed in HEK293 cells assessed as tail current at 60 uM measured after 8 mins by automated whole-cell Qpatch Clamp assay relative to control; details: HEK293 cells that express hERG
Chain of hERG (KCNH2) (Q12809 whole entry): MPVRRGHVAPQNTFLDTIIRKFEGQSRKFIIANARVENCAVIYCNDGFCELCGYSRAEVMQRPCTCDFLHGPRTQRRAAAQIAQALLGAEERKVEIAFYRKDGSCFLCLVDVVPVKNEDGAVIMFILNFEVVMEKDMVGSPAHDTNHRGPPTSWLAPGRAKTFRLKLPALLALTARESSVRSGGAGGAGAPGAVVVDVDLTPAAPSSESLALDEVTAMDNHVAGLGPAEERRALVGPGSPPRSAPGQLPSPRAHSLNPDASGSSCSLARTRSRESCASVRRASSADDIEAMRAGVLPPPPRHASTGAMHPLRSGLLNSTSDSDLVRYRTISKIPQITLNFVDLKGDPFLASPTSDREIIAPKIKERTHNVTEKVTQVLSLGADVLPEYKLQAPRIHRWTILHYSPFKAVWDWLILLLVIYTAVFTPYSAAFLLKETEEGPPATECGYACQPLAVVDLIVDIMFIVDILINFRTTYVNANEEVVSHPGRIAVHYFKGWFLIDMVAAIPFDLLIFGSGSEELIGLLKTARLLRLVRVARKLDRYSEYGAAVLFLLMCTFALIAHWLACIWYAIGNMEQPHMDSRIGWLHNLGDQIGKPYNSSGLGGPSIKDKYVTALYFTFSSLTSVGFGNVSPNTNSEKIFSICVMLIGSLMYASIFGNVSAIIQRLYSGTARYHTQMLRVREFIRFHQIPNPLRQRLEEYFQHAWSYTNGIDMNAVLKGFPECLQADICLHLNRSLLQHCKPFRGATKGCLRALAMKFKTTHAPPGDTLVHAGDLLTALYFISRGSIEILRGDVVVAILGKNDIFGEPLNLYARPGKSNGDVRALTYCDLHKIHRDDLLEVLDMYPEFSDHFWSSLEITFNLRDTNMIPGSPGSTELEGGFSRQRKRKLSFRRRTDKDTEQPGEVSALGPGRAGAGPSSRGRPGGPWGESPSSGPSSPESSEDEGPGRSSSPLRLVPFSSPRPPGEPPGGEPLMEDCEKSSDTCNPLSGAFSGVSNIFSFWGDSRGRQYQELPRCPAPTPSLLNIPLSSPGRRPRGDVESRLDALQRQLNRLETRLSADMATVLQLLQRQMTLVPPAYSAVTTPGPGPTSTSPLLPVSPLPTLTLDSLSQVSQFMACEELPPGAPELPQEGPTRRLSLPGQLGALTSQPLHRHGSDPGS

in vitro [23] = details: human, liver microsomes
[24] = Inhibition of P-gp efflux in MDCKII-MDR1 cells using calcein-AM as substrate assessed as intracellular calcein fluorescence preincubated for 15 mins followed by substrate addition and measured by fluorescence based assay; type: cell-based; details: Canis lupus familiaris
Streptococcus pneumoniae = test: Antibacterial activity against Streptococcus pneumoniae assessed as inhibition of visible growth incubated for 20 to 24 hrs by microbroth serial dilution assay; type: functional; details: time 20-24 hrs, read-out: MIC100
in vitro [25] = details: mouse, liver microsomes
Staphylococcus aureus [26] = test: Antibacterial activity against multi drug-resistant Staphylococcus aureus USA300 FPR3757 assessed as inhibition of visible growth incubated for 20 to 24 hrs by microbroth serial dilution assay; type: functional; details: time 20-24 hrs, read-out: MIC100
Enterococcus faecium [27] = test: Antibacterial activity against Vancomycin-resistant Enterococcus faecium assessed as inhibition of visible growth incubated for 20 to 24 hrs by microbroth serial dilution assay; type: functional; details: time 20-24 hrs, read-out: MIC100
in vitro [28] = details: mouse, liver microsomes; remark: listed apart in the source
Escherichia coli = test: Antibacterial activity against Escherichia coli assessed as inhibition of visible growth incubated for 20 to 24 hrs by microbroth serial dilution assay; type: functional, organism-based; details: time 20-24 hrs
Listeria = test: Antibacterial activity against Listeria assessed as inhibition of visible growth incubated for 20 to 24 hrs by microbroth serial dilution assay; type: functional, organism-based; details: time 20-24 hrs
[29] = target: Voltage-gated inwardly rectifying potassium channel KCNH2 (Homo sapiens, UniProt Q12809); test: Inhibition of hERG expressed in HEK293 cells assessed as tail current measured after 8 mins by automated whole-cell Qpatch Clamp assay
Chain of Voltage-gated inwardly rectifying potassium channel KCNH2 (Q12809 whole entry): as above

Enterococcus faecium [30] = test: Antibacterial activity against Linezolid/Ampicillin/ciprofloxacin/Vancomycin-resistant Enterococcus faecium assessed as inhibition of visible growth incubated for 20 to 24 hrs by microbroth serial dilution assay; type: functional; details: time 20-24 hrs, read-out: MIC100
[31] = tested on: Staphylococcus epidermidis; test: Antibacterial activity against Staphylococcus epidermidis assessed as inhibition of visible growth incubated for 20 to 24 hrs by microbroth serial dilution assay; type: functional, organism-based; details: time 20-24 hrs
in vitro [32] = details: human, liver microsomes; remark: listed apart in the source
Enterococcus faecalis = test: Antibacterial activity against Enterococcus faecalis assessed as inhibition of visible growth incubated for 20 to 24 hrs by microbroth serial dilution assay; type: functional; details: time 20-24 hrs, read-out: MIC100
Staphylococcus aureus [33] = test: In vivo antibacterial activity against methicillin susceptible Staphylococcus aureus ATCC 25923 infected sepsis/peritonitis infection model assessed as reduction in bacterial burden in peritoneum at 80 mg/kg, sc twice at 1 hr and 3 hrs measured after 6 hrs; type: functional
Staphylococcus aureus [34] = test: In vivo antibacterial activity against methicillin susceptible Staphylococcus aureus ATCC 25923 infected sepsis/peritonitis infection model assessed as reduction in bacterial burden in blood at 80 mg/kg, sc twice at 1 hr and 3 hrs measured after 6 hrs; type: functional

Row | SMILES | fold change (FC) (Staphylococcus aureus [1]) | fold change (FC) (Staphylococcus aureus [2]) | fold change (FC) (Staphylococcus aureus [3]) | fold change (FC) (Staphylococcus aureus [4]) | fold change (FC) (Staphylococcus aureus [5]) | fold change (FC) (Staphylococcus aureus [6]) | fold change (FC) (Staphylococcus aureus [7]) | fold change (FC) (Staphylococcus aureus [8]) | fold change (FC) (Staphylococcus aureus [10]) | fold change (FC) (Staphylococcus aureus [11]) | fold change (FC) (Staphylococcus aureus [12]) | fold change (FC) (Staphylococcus aureus [13]) | fold change (FC) (Staphylococcus aureus [14]) | fold change (FC) (Staphylococcus aureus [15]) | fold change (FC) (Staphylococcus aureus [16]) | fold change (FC) (Staphylococcus aureus [17]) | fold change (FC) (Staphylococcus aureus [18]) | fold change (FC) (Staphylococcus aureus [19]) | fold change (FC) (Staphylococcus aureus [20]) | fold change (FC) (Staphylococcus aureus [21]) | other results
1 | C=C[C@]1(C)C[C@@H](OC(=O)Cn2cc(-c3ccc(Cn4cnc5c(N6CCNCC6)ncnc54)nc3)nn2)[C@]2(C)[C@H](C)CC[C@]3(CCC(=O)[C@H]32)[C@@H](C)[C@@H]1O | 32 | 32 | 8 | 32 | 32 | 8 | 8 | 32 | 16 | 16 | 32 | 4 | 8 | 128 | 16 | 64 | 32 | 64 | 4 | 32 | Activity (Staphylococcus aureus [9]): inactive; fold change (FC) (Staphylococcus aureus [22]): 64
2 | C=C[C@]1(C)C[C@@H](OC(=O)Cn2cc(-c3ccc(Cn4cnc5c(N)ncnc54)cc3)nn2)[C@]2(C)[C@H](C)CC[C@]3(CCC(=O)[C@H]32)[C@@H](C)[C@@H]1O |  |  |  |  |  |  |  |  |  |  |  |  |  |  |  |  |  |  |  |  | inhibition at 8 min, 60 µM (hERG (KCNH2)): 26.3%; CLint scaled at 0.5 h, 1 µM (in vitro [23]): 305 L/h/kg; IC50 [24]: 36 µM; MIC (Streptococcus pneumoniae): 0.5 µg/mL (≈ 0.766 µM); CLint scaled at 0.5 h, 1 µM (in vitro [25]): > 600 L/h/kg; MIC (Staphylococcus aureus [26]): 0.03 µg/mL (≈ 0.046 µM); MIC (Enterococcus faecium [27]): 0.12 µg/mL (≈ 0.184 µM); half-life at 0.5 h, 1 µM (in vitro [28]): < 0.5 min; Activity (Escherichia coli): inactive; Activity (Listeria): inactive; IC50 [29]: > 200 µM; MIC (Enterococcus faecium [30]): 0.12 µg/mL (≈ 0.184 µM); Activity [31]: inactive; half-life at 0.5 h, 1 µM (in vitro [32]): 1.2 min; MIC (Enterococcus faecalis): 0.25 µg/mL (≈ 0.383 µM)
3 | C=C[C@]1(C)C[C@@H](OC(=O)Cn2cc(-c3ccc(Cn4cnc5c(N6CCNCC6)ncnc54)nc3)nn2)[C@]2(C)[C@H](C)CC[C@]3(CCC(=O)[C@H]32)[C@@H](C)[C@@H]1O.Cl.Cl |  |  |  |  |  |  |  |  |  |  |  |  |  |  |  |  |  |  |  |  | Activity (Staphylococcus aureus [33]): 1 log10FFU/ml; Activity (Staphylococcus aureus [34]): 2 log10FFU/ml
4 | CC(=O)NC[C@H]1CN(c2ccc(N3CCOCC3)c(F)c2)C(=O)O1 | 4 | 4 | 4 | 32 | 8 | 8 | 4 | 2 | 8 | 2 | 32 | 4 | 16 | 2 | 4 | 8 | 32 | 2 | 8 | 2 | fold change (FC) (Staphylococcus aureus [22]): 16
